Where two headings read alike, the source gives them in different places. Starred links: 1 amine or outer side, 2 acyl side, 3 side chain; linkers in the order of their positions; H or OH if unused. Positions of bridges follow the written chain, without caps; N, C: chain ends. Non-standard residues stand in square brackets, D forms with d. Residues, ends and D or L forms follow the SMILES beside them. *: point of attachment. Met(O2) = CS(=O)(=O)CC[C@H](N)C(=O)O; NEtPhe = CCN[C@@H](Cc1ccccc1)C(=O)O; NMeF = CN[C@@H](Cc1ccccc1)C(=O)O; NMeGABA = CN(CCCC(=O)[*:2])[*:1]; NMeI = CC[C@H](C)[C@H](NC)C(=O)O; 3Pal = N[C@@H](Cc1cccnc1)C(=O)O; NMeβAla = CN(CCC(=O)[*:2])[*:1]; NMeL = CN[C@@H](CC(C)C)C(=O)O; NMeV = CN[C@H](C(=O)O)C(C)C; NMeA = CN[C@@H](C)C(=O)O; Piperidide = C1CCN(*)CC1; dNMeA = CN[C@H](C)C(=O)O; β3hA = C[C@H](N)CC(=O)O; Sar = CNCC(=O)O; tBu = CC(C)(C)*
How the values were obtained:
[1] = Metabolic stability in human hepatic microsome; format: in vitro ADME; conditions: microsomes
[2] = PAMPA (parallel artificial membrane permeability assay); format: in vitro ADME; conditions: PAMPA
Procedure, shortened: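 Artificial membrane was 10% (w/v) egg lecithin plus 0.5% (w/v) cholesterol in dodecane on a PVDF filter. A 10 mM DMSO stock was added at 0.5% (v/v) to donor buffer (50 mM MOPSO, pH 6.5, 5.0% glycocholic acid). After 18 h at 37 °C, LC/MS or LC/UV gave donor and acceptor levels for Pe.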

[3] = pH 7.4, human hepatic microsome, NADPH(+), read-out: CL NADPH(+)
[4] = membrane permeation rate (Pe), 50 mM MOPSO buffer pH 6.5 with 5.0% glycocholic acid, 37° C., 18 hours, read-out: iPAMPA Pe

Row | Compound | microsomal CLint at 1 uM [1, 3] | Papp at 18 hours, 50 µM [2, 4] | microsomal CLint at 1 uM ([1]; human, pH 7.4, CL NADPH(+)) | Papp at 18 hours, 50 µM ([2]; pH 6.5)
1 | CC(C)C[C@H]1C(=O)N(C)[C@@H](Cc2ccccc2)C(=O)NCC(=O)N[C@H](C(=O)N2CCCCC2)CC(=O)N(C)CC(=O)N[C@@H]([C@@H](C)O)C(=O)N(C)[C@@H](C)C(=O)N[C@@H](COC(C)(C)C)C(=O)N(C)[C@@H](Cc2ccccc2)C(=O)N1C [DP-271] ([Sar]T[NMeA]S(tBu)[NMeF][NMeL][NMeF]GD-Piperidide; lactam N-9) | 38 µL/min/mg | 10 ×10⁻⁶ cm/s |  | 
2 | CC(C)C[C@H]1C(=O)N(C)[C@@H](Cc2ccccc2)C(=O)N[C@@H]([C@@H](C)O)C(=O)N(C)[C@@H](C)C(=O)N[C@@H](C)C(=O)N(C)[C@@H](Cc2ccccc2)C(=O)N[C@@H](C)C(=O)N(C)[C@@H](C(C)C)C(=O)N(C)[C@@H](C)C(=O)N[C@H](C(=O)N(C)[C@@H](Cc2ccccc2)C(=O)N[C@@H](C)C(=O)N2CCCCC2)CC(=O)N(C)[C@H](C)C(=O)N1C [DP-348] ([dNMeA][NMeL][NMeF]T[NMeA]A[NMeF]A[NMeV][NMeA]D[NMeF]A-Piperidide; lactam N-11) | 17 µL/min/mg | 19 ×10⁻⁶ cm/s |  | 
3 | CC[C@H](C)[C@H]1C(=O)N[C@H](C(=O)N2CCCCC2)CC(=O)N(C)[C@H](C)C(=O)N(C)[C@@H](C)C(=O)N(C)CC(=O)N(C)[C@@H](CC(C)C)C(=O)N[C@@H]([C@@H](C)O)C(=O)N(C)[C@@H](Cc2ccccc2)C(=O)N(C)[C@@H](CC(C)C)C(=O)N[C@@H](COC(C)(C)C)C(=O)N1C [DP-144] ([dNMeA][NMeA][Sar][NMeL]T[NMeF][NMeL]S(tBu)[NMeI]D-Piperidide; lactam N-10) |  |  | 125 µL/min/mg | 65 ×10⁻⁶ cm/s
4 | CC(C)C[C@@H]1NC(=O)[C@H](CC(C)C)N(C)C(=O)[C@H](C)N(C)C(=O)[C@@H](C)N(C)C(=O)C[C@@H](C(=O)N2CCCCC2)NC(=O)[C@H]([C@@H](C)O)NC(=O)CN(C)C(=O)[C@H](Cc2ccccc2)NC(=O)[C@H](CC(C)C)N(C)C(=O)[C@H](C(C)C)N(C)C(=O)[C@H](Cc2ccccc2)N(C)C1=O [DP-165] ([dNMeA][NMeA][NMeL]L[NMeF][NMeV][NMeL]F[Sar]TD-Piperidide; lactam N-11) | 42 µL/min/mg | 56 ×10⁻⁶ cm/s |  | 
5 | CC(C)C[C@H]1C(=O)NCC(=O)N[C@@H]([C@@H](C)O)C(=O)N(C)[C@@H](C(C)C)C(=O)N[C@@H](Cc2ccccc2)C(=O)N[C@H](C(=O)N(C)[C@@H](Cc2ccccc2)C(=O)N(C)[C@@H](Cc2ccccc2)C(=O)N[C@@H](C)C(=O)N2CCCCC2)CC(=O)N(C)[C@H](C)C(=O)N(C)[C@@H](C)C(=O)N[C@@H](C(C)C)C(=O)N(C)[C@@H](Cc2ccccc2)C(=O)N1C [DP-452] ([dNMeA][NMeA]V[NMeF][NMeL]GT[NMeV]FD[NMeF][NMeF]A-Piperidide; lactam N-10) | 21 µL/min/mg | 22 ×10⁻⁶ cm/s |  | 
6 | CC(C)C[C@@H]1NC(=O)CN(C)C(=O)[C@H](C(C)C)N(C)C(=O)[C@H](C)NC(=O)[C@H]([C@@H](C)O)NC(=O)[C@H](CC(C)C)N(C)C(=O)[C@H](C)N(C)C(=O)[C@H](CC(C)C)N(C)C(=O)[C@H](Cc2ccccc2)NC(=O)CCN(C)C(=O)C[C@@H](C(=O)N2CCCCC2)NC1=O [DP-102] ([NMeβAla]F[NMeL][NMeA][NMeL]TA[NMeV][Sar]LD-Piperidide; lactam N-11) |  |  | 5 µL/min/mg | 1.8 ×10⁻⁶ cm/s
7 | CC(C)C[C@H]1C(=O)N(C)[C@@H](CC(C)C)C(=O)N[C@H](C(=O)N(C)[C@@H](Cc2ccccc2)C(=O)N[C@@H](C)C(=O)N2CCCCC2)CC(=O)N[C@H](C(C)C)C(=O)N(C)[C@@H](C)C(=O)N(C)[C@@H](Cc2ccccc2)C(=O)N(C)[C@@H](CC(C)C)C(=O)N[C@@H](Cc2cccnc2)C(=O)N(C)CC(=O)N[C@@H](C)C(=O)N1C [DP-591] ([dV][NMeA][NMeF][NMeL][3Pal][Sar]A[NMeL][NMeL]D[NMeF]A-Piperidide; lactam N-10) | 15 µL/min/mg | 26 ×10⁻⁶ cm/s |  | 
8 | CC(C)C[C@H]1C(=O)N(C)[C@@H](C)C(=O)N[C@H](C(=O)N(C)[C@@H](Cc2ccccc2)C(=O)N[C@@H](C)C(=O)N2CCCCC2)CC(=O)N(C)[C@H](C)C(=O)N(C)[C@@H](C)C(=O)N[C@@H](C)C(=O)N(C)[C@@H](Cc2ccccc2)C(=O)N(C)[C@@H](C)C(=O)N(C)[C@@H](Cc2ccccc2)C(=O)N[C@@H]([C@@H](C)O)C(=O)N(C)[C@@H](C)C(=O)N1C [DP-443] ([dNMeA][NMeA]A[NMeF][NMeA][NMeF]T[NMeA][NMeL][NMeA]D[NMeF]A-Piperidide; lactam N-11) | 17 µL/min/mg | 9.1 ×10⁻⁶ cm/s |  | 
9 | CC(C)C[C@H]1C(=O)N[C@@H](COC(C)(C)C)C(=O)N[C@@H](C)CC(=O)N[C@H](C)C(=O)N(C)[C@@H](C)C(=O)N(C)[C@@H](Cc2ccccc2)C(=O)N(C)[C@@H](CC(C)C)C(=O)N[C@@H]([C@@H](C)O)C(=O)N(C)[C@@H](C)C(=O)N1C [DP-787] (cyclo([NMeA][NMeF][NMeL]T[NMeA][NMeL]S(tBu)[β3hA][dA])) | 33 µL/min/mg | 29 ×10⁻⁶ cm/s |  | 
10 | CC(C)C[C@@H]1NC(=O)[C@@H](C(C)C)NC(=O)C[C@@H](C(=O)N2CCCCC2)NC(=O)[C@H](Cc2ccccc2)N(C)C(=O)[C@H](CC(C)C)N(C)C(=O)[C@H](Cc2ccccc2)NC(=O)[C@H](C)N(C)C(=O)[C@H]([C@@H](C)O)NC1=O [DP-701] ([dV]LT[NMeA]F[NMeL][NMeF]D-Piperidide; lactam N-8) | 69 µL/min/mg | 31 ×10⁻⁶ cm/s |  | 
11 | CC[C@H](C)[C@H]1C(=O)N(C)[C@@H](CC(C)C)C(=O)N[C@@H]([C@@H](C)O)C(=O)N[C@H](C(=O)N2CCCCC2)CC(=O)N[C@H](C(C)C)C(=O)N(C)[C@@H](C)C(=O)N(C)[C@@H](CC(C)C)C(=O)N(C)[C@@H](Cc2ccccc2)C(=O)N[C@@H](C)C(=O)N(C)[C@@H](CC(C)C)C(=O)N(C)[C@@H](Cc2ccccc2)C(=O)N1C [DP-234] ([dV][NMeA][NMeL][NMeF]A[NMeL][NMeF][NMeI][NMeL]TD-Piperidide; lactam N-11) | 91 µL/min/mg | 2 ×10⁻⁶ cm/s |  | 
12 | CC(C)C[C@H]1C(=O)N(C)[C@@H](C)C(=O)N[C@@H]([C@@H](C)O)C(=O)N(C)[C@@H](C)C(=O)N(C)[C@@H](Cc2ccccc2)C(=O)N[C@@H](Cc2ccccc2)C(=O)N[C@H](C(=O)N(C)[C@@H](Cc2ccccc2)C(=O)N[C@@H](C)C(=O)N2CCCCC2)CC(=O)N(C)CCC(=O)N(C)[C@@H](C)C(=O)N[C@@H](C)C(=O)N(C)CC(=O)N1C [DP-361] ([NMeβAla][NMeA]A[Sar][NMeL][NMeA]T[NMeA][NMeF]FD[NMeF]A-Piperidide; lactam N-11) | 9 µL/min/mg | 1.5 ×10⁻⁶ cm/s |  | 
13 | CC(C)C[C@H]1C(=O)N(C)[C@@H](CC(C)C)C(=O)N[C@@H]([C@@H](C)O)C(=O)N(C)[C@@H](Cc2ccccc2)C(=O)N[C@@H](COC(C)(C)C)C(=O)N(C)[C@@H](CC(C)C)C(=O)N[C@H](C(=O)N2CCCCC2)CC(=O)N(C)CCC(=O)N1C [DP-705] ([NMeβAla][NMeL][NMeL]T[NMeF]S(tBu)[NMeL]D-Piperidide; lactam N-8) | 265 µL/min/mg | 49 ×10⁻⁶ cm/s |  | 
14 | CCN1C(=O)CN(C)C(=O)[C@H]([C@@H](C)O)NC(=O)[C@H](C)N(C)C(=O)C[C@@H](C(=O)N2CCCCC2)NC(=O)[C@H](C(C)C)N(C)C(=O)[C@H](C)NC(=O)[C@H](CC(C)C)N(C)C(=O)[C@@H]2CCCN2C(=O)[C@H](CC(C)C)N(C)C(=O)[C@H](Cc2ccccc2)N(C)C(=O)[C@@H]1Cc1ccccc1 [DP-542] ([NMeA]T[Sar][NEtPhe][NMeF][NMeL]P[NMeL]A[NMeV]D-Piperidide; lactam N-11) |  |  | 21 µL/min/mg | 22 ×10⁻⁶ cm/s
15 | CC(C)C[C@H]1C(=O)N(C)[C@@H](Cc2ccccc2)C(=O)N(C)[C@@H](CC(C)C)C(=O)N[C@@H]([C@@H](C)O)C(=O)N[C@H](C(=O)N2CCCCC2)CC(=O)N[C@H](C(C)C)C(=O)N(C)[C@@H](C)C(=O)N(C)[C@@H](CC(C)C)C(=O)N[C@@H](CCS(C)(=O)=O)C(=O)N(C)[C@@H](Cc2ccccc2)C(=O)N[C@@H](Cc2ccccc2)C(=O)N1C [DP-621] ([dV][NMeA][NMeL][Met(O2)][NMeF]F[NMeL][NMeF][NMeL]TD-Piperidide; lactam N-11) | 11 µL/min/mg | 21 ×10⁻⁶ cm/s |  | 
16 | CC(C)C[C@H]1C(=O)N(C)[C@@H](C)C(=O)N(C)[C@@H](CC(C)C)C(=O)N[C@@H]([C@@H](C)O)C(=O)N(C)[C@@H](C)C(=O)N(C)[C@@H](CC(C)C)C(=O)N[C@@H](COC(C)(C)C)C(=O)N[C@@H](C)CC(=O)N[C@H](C(C)C)C(=O)N1C [DP-802] (cyclo([NMeA][NMeL]S(tBu)[β3hA][dV][NMeL][NMeA][NMeL]T)) | 77 µL/min/mg | 29 ×10⁻⁶ cm/s |  | 
17 | CC[C@H](C)[C@H]1C(=O)N(C)[C@@H](Cc2ccccc2)C(=O)N[C@@H]([C@@H](C)O)C(=O)N(C)[C@@H](C)C(=O)N(C)[C@@H](C(C)C)C(=O)N(C)[C@@H](CC(C)C)C(=O)N[C@@H](C)C(=O)N[C@H](C(=O)N2CCCCC2)CC(=O)N(C)CCC(=O)N[C@@H](Cc2ccccc2)C(=O)N(C)[C@@H](CC(C)C)C(=O)N1C [DP-241] ([NMeβAla]F[NMeL][NMeI][NMeF]T[NMeA][NMeV][NMeL]AD-Piperidide; lactam N-11) | 30 µL/min/mg | 26 ×10⁻⁶ cm/s |  | 
18 | CC(C)C[C@H]1C(=O)NCC(=O)N(C)[C@@H](Cc2ccccc2)C(=O)N(C)[C@@H](Cc2ccccc2)C(=O)N[C@@H]([C@@H](C)O)C(=O)N(C)[C@@H](C)C(=O)N[C@H](C(=O)N(C)[C@@H](Cc2ccccc2)C(=O)N(C)[C@@H](Cc2ccccc2)C(=O)N[C@@H](C)C(=O)N2CCCCC2)CC(=O)N(C)CCCC(=O)N[C@@H](C(C)C)C(=O)N1C [DP-402] ([NMeGABA]V[NMeL]G[NMeF][NMeF]T[NMeA]D[NMeF][NMeF]A-Piperidide; lactam N-9) |  |  | 185 µL/min/mg | 24 ×10⁻⁶ cm/s
